Drawing on ChEMBL document CHEMBL4483862, “Open-source discovery of chemical leads for next-generation chemoprotective antimalarials” (2018), this text covers IC50 and IC90 for 28 molecules.

The test has as its system Plasmodium berghei. The test can be described thus: Luciferase/luciferin-expressing antifolate-resistant parasites were used to infect a culture of HepG2 cells that were pre-incubated with compounds. Infected hepatocytes emit light due to the luciferase reaction. Assay results are presented as the percent inhibition of light emission compared to control. […]. Particulars: sporozoite; for IC90: read-out: LUCIFERASE INFECTION ASSAY - IC90. Format: functional.

`CCCc1c(NC(=O)Nc2ccc(F)cc2)cnn1-c1ccccc1`: the IC90 – broadly, the point of the concentration-response curve where the effect stands at 90% – is 6.91 µM. Moreover, the IC50 (as a rule, the midpoint of a concentration-inhibition curve) (HEPG2TOX_HILL_SLOPE 4.02, HEPG2TOX_R_SQUARED 0.285, PBLUC_HILL_SLOPE 3.66, PBLUC_R_SQUARED 0.261, read-out: LUCIFERASE INFECTION ASSAY - IC50) was 3.79 µM.
For `Cc1ccc(NC2=C(Cl)C(=O)c3ccccc3C2=O)cc1`, the 90% effect concentration (IC90) turned out to be 7.81 µM. Also, for the setting “HEPG2TOX_HILL_SLOPE 4.14, HEPG2TOX_R_SQUARED 0.984, PBLUC_HILL_SLOPE 5.35, PBLUC_R_SQUARED 0.565, read-out: LUCIFERASE INFECTION ASSAY - IC50”, the half-inhibitory concentration (IC50) was found to be 5.18 µM.
In the case of `CCN1C/C(=C/c2ccc(OC)c(O)c2)C(=O)/C(=C/c2ccc(OC)c(O)c2)C1`, the IC90 was 4.05 µM. Moreover, the IC50 (HEPG2TOX_HILL_SLOPE 4, HEPG2TOX_R_SQUARED 0.984, PBLUC_HILL_SLOPE 15.6, PBLUC_R_SQUARED 0.475, read-out: LUCIFERASE INFECTION ASSAY - IC50) amounted to 3.52 µM.
As to `Cn1ccc2cc(-c3cnc4cnc(-c5cccc(C(=O)NCCO)c5)cn34)ccc21`, the concentration for an effect of 90% (IC90) came to 3.63 µM. Further, the half-inhibitory concentration (IC50) (HEPG2TOX_HILL_SLOPE 4.1, HEPG2TOX_R_SQUARED 0.752, PBLUC_HILL_SLOPE 9.77, PBLUC_R_SQUARED 0.277, read-out: LUCIFERASE INFECTION ASSAY - IC50) is 2.9 µM.
With `Cn1c(-c2ccccc2)nc2cnc(-c3ccc(N)nc3)cc21`, the IC90 is more than 10 µM. Also, the IC50 (HEPG2TOX_HILL_SLOPE 4.2, HEPG2TOX_R_SQUARED 0.898, PBLUC_HILL_SLOPE 2.04, PBLUC_R_SQUARED 0.316, read-out: LUCIFERASE INFECTION ASSAY - IC50) was 5.32 µM.
`COc1ccc(NS(=O)(=O)c2cc([N+](=O)[O-])ccc2N/N=C(\C)c2ccc(S(=O)(=O)NCc3ccco3)cc2)cc1`: the concentration for an effect of 90% (IC90) is 4.99 µM. Besides, the half-maximal inhibitory concentration (IC50) (HEPG2TOX_HILL_SLOPE 4.01, HEPG2TOX_R_SQUARED 0.968, PBLUC_HILL_SLOPE 8.16, PBLUC_R_SQUARED 0.206, read-out: LUCIFERASE INFECTION ASSAY - IC50) was 3.81 µM.
In the case of `COc1cc(/C=C2/C(=O)Nc3cc(Cl)ccc32)c([N+](=O)[O-])cc1OC(F)F`, the concentration for an effect of 90% (IC90) stood at 4.58 µM. Under “HEPG2TOX_HILL_SLOPE 4.03, HEPG2TOX_R_SQUARED 0.974, PBLUC_HILL_SLOPE 1.79, PBLUC_R_SQUARED 0.765, read-out: LUCIFERASE INFECTION ASSAY - IC50”, the concentration for half-maximal inhibition (IC50) was found to be 1.34 µM.
As to `CN(C)c1ccccc1-c1cn2c(-c3ccc(CO)cc3)cnc2cn1`, the IC90 is more than 9.58 µM. The concentration for half-maximal inhibition (IC50) (HEPG2TOX_HILL_SLOPE 4.17, HEPG2TOX_R_SQUARED 0.686, PBLUC_HILL_SLOPE 6.79, PBLUC_R_SQUARED 0.489, read-out: LUCIFERASE INFECTION ASSAY - IC50) worked out at 8.57 µM.
In the case of `COc1ccc(-c2cnc3sc(NCCc4ccncc4)nn23)cc1OC`, the IC90 was determined as 8.35 µM. In addition, the IC50 (HEPG2TOX_HILL_SLOPE 4.06, HEPG2TOX_R_SQUARED 0.383, PBLUC_HILL_SLOPE 12.9, PBLUC_R_SQUARED 0.15, read-out: LUCIFERASE INFECTION ASSAY - IC50) turned out to be 7.04 µM.
Regarding `O=C1C(Cl)=C(OC(CO)CO)C(=O)c2ccccc21`, the IC90 was found to be 1.49 µM. The IC50 (HEPG2TOX_HILL_SLOPE 4.19, HEPG2TOX_R_SQUARED 0.978, PBLUC_HILL_SLOPE 3.44, PBLUC_R_SQUARED 0.808, read-out: LUCIFERASE INFECTION ASSAY - IC50) was 0.784 µM.
For the molecule `Cc1cc(C(=O)Cn2c(Cl)nc3c2c(=O)n(C)c(=O)n3C)c(C)n1-c1ccc2c(c1)OCCO2`, the IC90 is more than 10 µM. For the same molecule, the 50% inhibitory concentration (IC50) (HEPG2TOX_HILL_SLOPE 4.07, HEPG2TOX_R_SQUARED 0.354, PBLUC_HILL_SLOPE 24.1, PBLUC_R_SQUARED 0.351, read-out: LUCIFERASE INFECTION ASSAY - IC50) was 9.79 µM.
Consider `COc1cc(CN(C)C(=O)c2ccc3c(c2)S(=O)(=O)N=C2CCCCCN23)ccc1OC(F)F`, for which the concentration for an effect of 90% (IC90) was more than 10 µM. Moreover, the half-maximal inhibitory concentration (IC50) (HEPG2TOX_HILL_SLOPE 4.17, HEPG2TOX_R_SQUARED 0.672, PBLUC_HILL_SLOPE 0.764, PBLUC_R_SQUARED 0.62, read-out: LUCIFERASE INFECTION ASSAY - IC50) was determined as 1.97 µM.
Consider `CCCCCNC(=O)COC(=O)c1ccccc1-n1ncc(Cl)c(Cl)c1=O`, for which the IC90 is 7.79 µM. In addition, the half-maximal inhibitory concentration (IC50) (HEPG2TOX_HILL_SLOPE 4.14, HEPG2TOX_R_SQUARED 0.93, PBLUC_HILL_SLOPE 2.41, PBLUC_R_SQUARED 0.609, read-out: LUCIFERASE INFECTION ASSAY - IC50) came out at 3.13 µM.
Regarding `NS(=O)(=O)c1ccc(S(=O)(=O)N2CCCN(Cc3ccc(C(F)(F)F)cc3)CC2)cc1`, the concentration for an effect of 90% (IC90) was more than 10 µM. The IC50 (HEPG2TOX_HILL_SLOPE 4.06, HEPG2TOX_R_SQUARED 0.95, PBLUC_HILL_SLOPE 2.74, PBLUC_R_SQUARED 0.121, read-out: LUCIFERASE INFECTION ASSAY - IC50) was found to be 6.92 µM.
As to `Fc1cccc(-c2nc3ccnc(Nc4cccc(Oc5ccccc5)c4)c3[nH]2)c1`, the concentration for an effect of 90% (IC90) was found to be 8.85 µM. Besides, the IC50 (HEPG2TOX_HILL_SLOPE 4.02, HEPG2TOX_R_SQUARED 0.911, PBLUC_HILL_SLOPE 2.5, PBLUC_R_SQUARED 0.399, read-out: LUCIFERASE INFECTION ASSAY - IC50) stood at 3.68 µM.
Take `COc1ccc(/C(C)=N/NC(=O)c2sc3ccccc3c2Cl)c(O)c1`: the 90% effect concentration (IC90) came to 3.29 µM. The half-maximal inhibitory concentration (IC50) (HEPG2TOX_HILL_SLOPE 4.02, HEPG2TOX_R_SQUARED 0.607, PBLUC_HILL_SLOPE 31, PBLUC_R_SQUARED 0.396, read-out: LUCIFERASE INFECTION ASSAY - IC50) turned out to be 3.06 µM.
`COc1ccc(S(=O)(=O)Nc2ccccc2C(=O)NNC(=O)c2ccccc2O)cc1`: the IC90 is 4.69 µM. In addition, the concentration for half-maximal inhibition (IC50) (HEPG2TOX_HILL_SLOPE 4.15, HEPG2TOX_R_SQUARED 0.834, PBLUC_HILL_SLOPE 17, PBLUC_R_SQUARED 0.564, read-out: LUCIFERASE INFECTION ASSAY - IC50) was 4.12 µM.
For the molecule `CC(C)N1/C(=C/c2ccc3c(c2)OCCO3)C(=O)c2ccccc2S1(=O)=O`, the IC90 is more than 8.56 µM. For the same molecule, the IC50 (HEPG2TOX_HILL_SLOPE 4.1, HEPG2TOX_R_SQUARED 0.916, PBLUC_HILL_SLOPE 3.33, PBLUC_R_SQUARED 0.555, read-out: LUCIFERASE INFECTION ASSAY - IC50) turned out to be 5.07 µM.
For `CN1CCN(c2ccc(Cl)cc2NC(=O)Nc2cc(Cl)ccc2N2CCN(C)CC2)CC1`, the 90% effect concentration (IC90) is 3.56 µM. Further, the 50% inhibitory concentration (IC50) (HEPG2TOX_HILL_SLOPE 4.19, HEPG2TOX_R_SQUARED 0.986, PBLUC_HILL_SLOPE 15.5, PBLUC_R_SQUARED 0.444, read-out: LUCIFERASE INFECTION ASSAY - IC50) was 3.09 µM.
On to `C/C(=N\n1c(-c2cccc(Br)c2)cs/c1=N\c1ccc(Cl)cc1Cl)c1ccc2c(c1)OCO2`, for which the 90% effect concentration (IC90) was more than 10 µM. Moreover, the IC50 (HEPG2TOX_HILL_SLOPE 4.14, HEPG2TOX_R_SQUARED 0.54, PBLUC_HILL_SLOPE 9.69, PBLUC_R_SQUARED 0.311, read-out: LUCIFERASE INFECTION ASSAY - IC50) amounted to 9.72 µM.
Take `Cc1c(Cl)cccc1/N=C1\SCCN1C(=O)C(c1ccccc1)c1ccccc1`: the IC90 was more than 10 µM. For the same molecule, under “HEPG2TOX_HILL_SLOPE 4.09, HEPG2TOX_R_SQUARED 0.235, read-out: LUCIFERASE INFECTION ASSAY - IC50”, the IC50 is more than 10 µM.
Take `CC(C)C(Nc1ccc(C(F)(F)F)cc1Cl)C(=O)Nc1nc(-c2ccccc2Cl)cs1` (stereo unspecified): the concentration for an effect of 90% (IC90) worked out at 6.73 µM. The IC50 (HEPG2TOX_HILL_SLOPE 4.1, HEPG2TOX_R_SQUARED 0.707, PBLUC_HILL_SLOPE 4.35, PBLUC_R_SQUARED 0.154, read-out: LUCIFERASE INFECTION ASSAY - IC50) is 4.06 µM.
As for `COc1ccc(Cn2c3c(c4ccccc4c2=O)C(=O)c2ccccc2-3)cc1`, the IC90 is more than 8.98 µM. In addition, where the note is “HEPG2TOX_HILL_SLOPE 4, HEPG2TOX_R_SQUARED 0.749, PBLUC_HILL_SLOPE 2.74, PBLUC_R_SQUARED 0.283, read-out: LUCIFERASE INFECTION ASSAY - IC50”, the 50% inhibitory concentration (IC50) is 7.93 µM.
In the case of `Cc1ccc(-c2c(C)nn3c(=O)cc(C)[nH]c23)cc1`, the 90% effect concentration (IC90) came to 12.5 µM. Where the note is “HEPG2TOX_HILL_SLOPE 4.15, HEPG2TOX_R_SQUARED 0.53, PBLUC_HILL_SLOPE 4.03, PBLUC_R_SQUARED 0.493, read-out: LUCIFERASE INFECTION ASSAY - IC50”, the IC50 came out at 7.24 µM.
Turning to `O=C(Nc1ccc(SC(F)(F)F)cc1)Nc1ccc(Oc2cccc(C(F)(F)F)c2)nc1`, the IC90 was determined as 0.806 µM. Further, the IC50 (HEPG2TOX_HILL_SLOPE 4.03, HEPG2TOX_R_SQUARED 0.946, PBLUC_HILL_SLOPE 9.59, PBLUC_R_SQUARED 0.631, read-out: LUCIFERASE INFECTION ASSAY - IC50) is 0.641 µM.
On to `Oc1ccc(-c2cnc3cnc(-c4ccccc4Cl)cn23)cc1`, for which the IC90 worked out at 4.1 µM. In addition, the IC50 (HEPG2TOX_HILL_SLOPE 4.19, HEPG2TOX_R_SQUARED 0.981, PBLUC_HILL_SLOPE 3.43, PBLUC_R_SQUARED 0.853, read-out: LUCIFERASE INFECTION ASSAY - IC50) was found to be 2.16 µM.
Consider `O=C(NC1CCN(c2ccc(S(=O)(=O)C(F)F)cc2)CC1)C1CC1`, for which the concentration for an effect of 90% (IC90) was more than 10 µM. The 50% inhibitory concentration (IC50) (HEPG2TOX_HILL_SLOPE 4.17, HEPG2TOX_R_SQUARED 0.587, PBLUC_HILL_SLOPE 17, PBLUC_R_SQUARED 0.152, read-out: LUCIFERASE INFECTION ASSAY - IC50) was 8.89 µM.
`COc1ccc(-c2cnc3ccc(NCc4cccc(Cl)c4)nn23)cc1`: the 90% effect concentration (IC90) is 8.06 µM. Further, where the note is “HEPG2TOX_HILL_SLOPE 4.15, HEPG2TOX_R_SQUARED 0.863, PBLUC_HILL_SLOPE 14.2, PBLUC_R_SQUARED 0.0441, read-out: LUCIFERASE INFECTION ASSAY - IC50”, the IC50 came out at 6.9 µM.
